Measurements: patent publication US20210321612A1, “USE OF QUERCETIN IN PLANT AGING PROMOTER” (TOBACCO RESEARCH INSTITUTE OF CHINESE ACADEMY OF …, priority 2019, published 2021)

What was measured:
Format in all cases: in vivo
[1] = tested on: living plants of Arabidopsis thaliana; assay: Spraying the quercetin plant senescence accelerator onto living plants of Arabidopsis thaliana; conditions: attached leaves sprayed at 10 and 20 μmol/L; FIG. 3B
Description: Experimental test 3: Effects of spraying the quercetin plant senescence accelerator onto living plants of Arabidopsis thaliana Living plants of Arabidopsis thaliana were sprayed with the quercetin plant senescence accelerator finished products prepared by the preparation method provided in one of Embodiments 1-3 of the present application, and the accelerating effect of the accelerator on the senescence of plant leaves was observed. The specific results were shown in FIGS. 3A-3C, and the experimental groups and their results were described below. Experimental group: living plants of Arabidopsis thaliana were sprayed with the quercetin plant senescence accelerators with concentrations of 10 μmol/L and 20 μmol/L in Embodiment 2, respectively. Control group: living plants Arabidopsis thaliana were sprayed with the 1/2 MS solution of 2-(N-morpholino)ethanesulfonic acid in which the concentration of 2-(N-morpholino)ethanesulfonic acid was 3 mmol/L.

[2] = tested on: living plants of Nicotiana benthamiana; assay: Spraying the quercetin plant senescence accelerator onto attached leaves of Nicotiana benthamiana; conditions: attached leaves sprayed at 1, 10 and 20 μmol/L; FIG. 4B
Description: Experimental test 4: Effects of spraying the quercetin plant senescence accelerator onto attached leaves of Nicotiana benthamiana Living plants of Nicotiana benthamiana were sprayed with the quercetin plant senescence accelerator finished product in Embodiment 3, and the accelerating effect of the accelerator on the senescence of plant leaves was observed. The specific results were shown in FIGS. 4A-4C, and the experimental groups and their results were described below. Experimental group: living plants of Nicotiana benthamiana were sprayed with the quercetin plant senescence accelerators having concentrations of 1 μmol/L, 10 μmol/L and 20 μmol/L, respectively. Control group: living plants of Nicotiana benthamiana were sprayed with the 1/2 MS solution of 2-(N-morpholino)ethanesulfonic acid in which the concentration of 2-(N-morpholino)ethanesulfonic acid was 2.9 mmol/L.

Honghuadajinyuan tobacco = assay: Spraying the quercetin plant senescence accelerator onto common tobacco in fields; conditions: 10 μmol/L; attached leaves of tobacco; FIG. 5B
Description: Experimental test 5: Effects of spraying the quercetin plant senescence accelerator onto common tobacco in fields It could be found from the experimental test 4 that 10 μmol/L was the optimal concentration of the quercetin plant senescence accelerator to accelerate mature and yellowing of tobacco leaves. Further, Honghuadajinyuan tobacco was sprayed with the quercetin plant senescence accelerator finished product, and the accelerating effect of the accelerator on the senescence of plant leaves was observed. The specific results were shown in FIGS. 5A-5D, and the experimental groups and their results were described below. The quercetin plant senescence accelerator having a concentration of 0 (the control group) and the quercetin plant senescence accelerator having a concentration of 10 μmol/L were sprayed onto living plants of common tobacco.

Measured: content of chlorophyll in leaves

O=c1c(O)c(-c2ccc(O)c(O)c2)oc2cc(O)cc(O)c12 [quercetin]
significantly reduced: all assays above
